# Literature values, collected in patent US6583123B2, “Aminosugar, glycosaminoglycan, and S-adenosylmethionine composition for the treatment and repair of connective tissue” (Nutramax Laboratories, Inc., priority 1996, dated 2003).
# Key:
# wound healing = settings: topical application, in vivo
# osteoarthritis = settings: humans with osteoarthritis
# fibroblasts = settings: in vitro
# [1] = some forms of exogenous SAM, given orally
# [2] = SAM per se (not stable salts)
# [3] = oral, humans, versus placebo
# [4] = not given; remark: listed apart in the source
compound,measurement,setting,value
N[C@H]1C(O)O[C@H](CO)[C@@H](O)[C@@H]1O (stereo partly shown) [Glucosamine],absorption after oral administration,humans and animals,rapidly absorbed
same,tissue localization of ingested glucosamine,oral,localizes to cartilage and joint tissues
same,wound healing,wound healing,enhanced wound healing
same,symptoms and cartilage integrity,osteoarthritis,reproducible improvement in symptoms and cartilage integrity
same,synthesis of collagen and glycosaminoglycans,fibroblasts,increase the synthesis of collagen and glycosaminoglycans
"C[S+](CC[C@H](N)C(=O)[O-])C[C@H]1O[C@@H](n2cnc3c(N)ncnc32)[C@H](O)[C@@H]1O (stereo partly shown) [SAM, S-Adenosylmethionine]",stability in digestive juices,[1],stable in digestive juices
same,stability,[2],unstable
same,tolerability,[3],tolerated to the same extent as placebo
Nc1ncnc2c1ncn2[C@@H]1O[C@H](CO)[C@@H](O)[C@H]1O [adenosine],anti-inflammatory effect,inflammation,more modest anti-inflammatory effect
[Mn+2] [manganese],dietary manganese absorbed by the body tissue,[4],Approximately 40%
